Measured values from paper PMC9963398, “Discovery of New Quinolone-Based Diarylamides as Potent B-RAF^V600E/C-RAF Kinase Inhibitors Endowed with Promising In Vitro Anticancer Activity” (International Journal of Molecular Sciences, 2023).
Where two headings read alike, the source gives them in different places.

Experiments:
B-RAF^V600E [1] = target: T1, B-RAF^V600E (Homo sapiens, UniProt P15056, V600E); test: HotSpot kinase assay (RBC), B-RAF^V600E; type: biochemical; details: 10 µM ATP, 10-dose singlicate IC50 mode
T1 construct: purchased Reaction Biology Corporation (RBC), Kinase HotSpot service
T1 sequence (P15056 whole entry V600E): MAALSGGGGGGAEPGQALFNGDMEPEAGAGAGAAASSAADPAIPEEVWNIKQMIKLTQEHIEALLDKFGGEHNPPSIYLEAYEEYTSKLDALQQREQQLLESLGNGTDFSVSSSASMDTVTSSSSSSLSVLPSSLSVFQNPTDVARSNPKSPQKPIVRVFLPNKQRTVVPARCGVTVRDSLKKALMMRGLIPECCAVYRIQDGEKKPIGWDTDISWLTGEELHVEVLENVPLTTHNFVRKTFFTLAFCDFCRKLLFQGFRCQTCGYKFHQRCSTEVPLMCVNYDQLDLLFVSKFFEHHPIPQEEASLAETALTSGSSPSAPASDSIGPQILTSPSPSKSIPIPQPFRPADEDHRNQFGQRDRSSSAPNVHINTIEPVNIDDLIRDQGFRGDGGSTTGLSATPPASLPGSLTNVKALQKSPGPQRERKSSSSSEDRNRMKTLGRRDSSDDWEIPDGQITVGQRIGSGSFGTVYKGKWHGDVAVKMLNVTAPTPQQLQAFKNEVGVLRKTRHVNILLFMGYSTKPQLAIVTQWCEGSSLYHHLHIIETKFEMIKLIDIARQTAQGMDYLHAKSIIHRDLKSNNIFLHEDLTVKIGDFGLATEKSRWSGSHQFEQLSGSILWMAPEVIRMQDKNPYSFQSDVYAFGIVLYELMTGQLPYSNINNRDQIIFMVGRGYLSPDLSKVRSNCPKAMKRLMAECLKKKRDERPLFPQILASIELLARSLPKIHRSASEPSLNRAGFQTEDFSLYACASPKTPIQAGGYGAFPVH

C-RAF [2] = target: T2, C-RAF (Homo sapiens, UniProt P04049); test: HotSpot kinase assay (RBC), C-RAF; details: IC50 C-RAF, 10 µM ATP, 10-dose singlicate IC50 mode
T2 sequence (P04049 whole entry): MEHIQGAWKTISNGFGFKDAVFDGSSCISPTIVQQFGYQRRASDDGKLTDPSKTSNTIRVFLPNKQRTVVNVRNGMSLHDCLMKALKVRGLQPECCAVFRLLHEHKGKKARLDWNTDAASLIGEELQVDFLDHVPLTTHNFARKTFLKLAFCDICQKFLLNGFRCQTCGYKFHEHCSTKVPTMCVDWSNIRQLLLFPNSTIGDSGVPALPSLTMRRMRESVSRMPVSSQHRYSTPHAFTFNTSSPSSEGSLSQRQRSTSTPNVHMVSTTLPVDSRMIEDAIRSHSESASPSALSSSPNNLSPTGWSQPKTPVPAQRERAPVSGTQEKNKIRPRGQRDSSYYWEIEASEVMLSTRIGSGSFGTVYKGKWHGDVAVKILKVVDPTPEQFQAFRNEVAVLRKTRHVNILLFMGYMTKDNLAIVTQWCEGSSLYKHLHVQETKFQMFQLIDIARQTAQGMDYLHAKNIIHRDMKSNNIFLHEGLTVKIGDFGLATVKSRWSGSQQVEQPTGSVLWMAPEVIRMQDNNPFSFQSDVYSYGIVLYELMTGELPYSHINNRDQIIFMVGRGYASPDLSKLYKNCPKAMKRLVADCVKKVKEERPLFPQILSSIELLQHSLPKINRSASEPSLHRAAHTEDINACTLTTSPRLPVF
Excerpt: Reaction Biology Corporation (RBC) Kinase HotSpotSM service was utilized for cell-free biochemical kinase evaluation of the target compounds according to the reported assay protocol [46].

EGFR = system: EGFR; set-up: method as in PMID 24588073; details: cited from earlier work
RAF = system: RAF; set-up: method as in PMID 28368067; details: cited from earlier work
B-RAF = system: B-RAF; set-up: method as in PMID 25461318; details: cited from earlier work
C-RAF [3] = target: T2, C-RAF; details: at 10 µM; cited from earlier work
B-RAF^WT = system: B-RAF^WT; set-up: method as in PMID 25835317; details: cited from earlier work
Src = system: Src; set-up: method as in PMID 25835317; details: cited from earlier work
B-RAF^V600E [4] = target: T1, B-RAF^V600E; details: cited from earlier work
B-RAF^V600E [5] = target: T1, B-RAF^V600E; set-up: method as in PMID 24900673, PMID 33780623; details: cited from earlier work

Compound COc1ccc2nc(Nc3cccc(NC(=O)c4ccc(CN5CCCN(C)CC5)c(C(F)(F)F)c4)c3)ccc2c1 [Compound 16b, N-(3-((6-methoxyquinolin-2-yl)amino)phenyl)-4-((4-methyl-1,4-diazepan-1-yl)methyl)-3-(trifluoromethyl)benzamide] has an IC50 (B-RAF^V600E [1]) of 308 ± 14.9 nM and an IC50 (C-RAF [2]) of 164 ± 6.05 nM.

In the case of Cc1ccc(C(=O)Nc2ccc(CN3CCN(C)CC3)c(C(F)(F)F)c2)cc1NC(=O)c1cnc2[nH]ccc2c1 [Compound IV], the IC50 (EGFR) is listed as 8 nM.

For Cc1ccc(C(=O)Nc2ccc(Cl)c(C(F)(F)F)c2)cc1NC(=O)C1(c2ccnc(NCCN3CCN(C)CC3)n2)CC1 [III], the “IC50 values, pan-RAF” value (RAF) is listed as “two digits nanomolar”.

For O=C(Nc1ccc(Cl)c(C(F)(F)F)c1)c1ccc(Cl)c(C(=O)Nc2ccc(-c3ncc[nH]3)nc2)c1 [II], the IC50 (B-RAF) is given as 531 nM.

For COc1cc2cc(Oc3ccc(NC(=O)c4cc(C(F)(F)F)cc(C(F)(F)F)c4)cc3)c(C)nc2cc1OC [VI], the “inhibition of C-RAF” value (C-RAF [3]) is listed as 77%.

For CCn1nc(C#Cc2cc(C(=O)Nc3ccc(CN4CCN(C)CC4)c(C(F)(F)F)c3)ccc2C)c2c(N)ncnc21 [V], the IC50 (B-RAF^WT) is given as 15 nM, the IC50 (Src) is given as 0.9 nM and the IC50 (B-RAF^V600E [4]) is given as 92 nM.

For CC(C)(C)c1nc(-c2cccc(NS(=O)(=O)c3c(F)cccc3F)c2F)c(-c2ccnc(N)n2)s1 [dabrafenib], the “selectivity against B-RAF^V600E than its wild type” value (B-RAF^V600E [5]) is given as 500 fold.

For CCCS(=O)(=O)Nc1ccc(F)c(C(=O)c2c[nH]c3ncc(-c4ccc(Cl)cc4)cc23)c1F [vemurafenib], the “selectivity against B-RAF^V600E than its wild type” value (B-RAF^V600E [5]) is listed as 100 fold.
